This note sets out measurements from US20220002279A1, “NOVEL IMIDAZOLE DERIVATIVE” (priority 2018, published 2022).

Assay [1] relates to Pseudomonas aeruginosa strain ATCC27853. As to the kind of experiment: Antimicrobial activity, MIC by broth microdilution. To be noted: ATCC27853, 18 h, cation-adjusted Mueller-Hinton broth, about 5×10^5 CFU/mL, 35° C., about 18 hours, read-out: MIC Pseudomonas aeruginosa ATCC27853. Format: cell-based. The method, boiled down:
(§1)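 MIC read by eye as the lowest drug level lacking visible growth after roughly 18 h at 35° C. Cells from heart infusion agar, set to McFarland 0.5 and diluted, were inoculated at about 5×10^5 CFU/mL into cation-adjusted Mueller-Hinton broth with compound, per adapted CLSI microdilution.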

Assay [2] concerns Klebsiella pneumoniae strain ATCC13883. As to the kind of experiment: Antimicrobial activity, MIC by broth microdilution. To be noted: ATCC13883, cation-adjusted Mueller-Hinton broth, about 5×10^5 CFU/mL, 35° C., about 18 hours, read-out: MIC Klebsiella pneumoniae ATCC13883. Format: cell-based. An outline of the steps: as §1
On the technique in general: Dilution methods test growth across graded concentrations, often in twofold steps.

The target of assay [3] is T1, Escherichia coli LpxC enzyme (Escherichia coli, UniProt P0A725).
T1 construct: made in house; host or cells: Escherichia coli
T1 sequence (P0A725 1-305): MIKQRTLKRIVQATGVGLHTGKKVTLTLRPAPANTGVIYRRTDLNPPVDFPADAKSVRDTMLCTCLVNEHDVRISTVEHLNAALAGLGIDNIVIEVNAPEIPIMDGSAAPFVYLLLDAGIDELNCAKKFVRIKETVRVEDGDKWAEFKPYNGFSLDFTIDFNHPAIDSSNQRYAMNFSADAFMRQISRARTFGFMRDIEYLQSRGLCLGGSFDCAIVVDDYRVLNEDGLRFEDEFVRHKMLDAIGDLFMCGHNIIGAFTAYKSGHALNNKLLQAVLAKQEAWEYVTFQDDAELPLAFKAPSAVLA
In words: Inhibitory activity on Escherichia coli LpxC enzyme (fluorescamine method). Type of assay: biochemical. An outline of the steps: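 LpxC reacted with UDP-3-O-(R-3-hydroxymyristoyl)-N-acetylglucosamine; product amine quantified after fluorescamine stop and pH 8.0 phosphate buffer addition, at 390 nm/495 nm. Inhibition curve built from a range of test compound concentrations.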

Assay [4] deals with T2, Pseudomonas aeruginosa LpxC enzyme (Pseudomonas aeruginosa, UniProt P47205).
T2 construct: made in house; host or cells: Escherichia coli
T2 sequence (P47205 1-303): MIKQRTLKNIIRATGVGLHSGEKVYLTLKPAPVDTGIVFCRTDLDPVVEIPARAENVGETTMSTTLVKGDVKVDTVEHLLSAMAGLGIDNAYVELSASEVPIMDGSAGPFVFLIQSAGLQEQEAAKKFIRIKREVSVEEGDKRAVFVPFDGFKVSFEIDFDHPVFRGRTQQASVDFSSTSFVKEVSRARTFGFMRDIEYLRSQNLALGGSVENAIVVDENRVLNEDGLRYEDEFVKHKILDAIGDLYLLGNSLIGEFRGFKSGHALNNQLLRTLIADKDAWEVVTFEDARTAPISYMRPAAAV
As to the kind of experiment: Inhibitory activity on Pseudomonas aeruginosa LpxC enzyme (fluorescamine method). Type of assay: biochemical. To be noted: fluorescamine detection; 3.6 nmol/L enzyme, 20 μmol/L substrate, pH 8.0, 60 min. The source says:
Test Example 1 Evaluation of the Inhibitory Activity on Pseudomonas aeruginosa LpxC Enzyme (Fluoresamine Method)
To assay the activity of Pseudomonas aeruginosa LpxC enzyme, LpxC was reacted with its substrate, UDP-3-O-(R-3-hydroxydecanoyl)-N-acetylglucosamine, and the amount of the reaction product was quantified by the amino groups present in the product.
Specifically, to 3.6 nmol/L Pseudomonas aeruginosa LpxC enzyme (as acquired by preparing chromosomal DNA from Pseudomonas aeruginosa, obtaining the Pseudomonas aeruginosa LpxC genes by PCR (polymerase chain reaction) using LpxC specific primer, and incorporating the genes into a vector, followed by expression using Escherichia coli), 20 μmol/L UDP-3-O-(R-3-hydroxydecanoyl)-N-acetylglucosamine (Carbosynth) was added, and the mixture was incubated at room temperature for 60 minutes. This reaction was performed in a 40 mmol/L-HEPES buffer solution (pH 8.0) containing 0.02% Brij 35 and 25 nmol/L-zinc chloride. The reaction was terminated by the addition of 1.0 mg/mL-fluorescamine dissolved in a solvent obtained by mixing an equal amount of acetonitrile and dimethylformamide with the reaction mixture, and then, a 0.2 mol/L-sodium phosphate buffer solution (pH 8.0) was added thereto, and the amount of the reaction product was detected at an excitation wavelength/fluorescence wavelength=390 nm/495 nm. An inhibition curve was obtained by performing the aforementioned reaction in the presence of various concentrations of test compounds. From this inhibition curve, the concentration of test compound at which the amount of the reaction product was suppressed by 50% (IC50 value) was determined, which was used as an index for the inhibitory activity on Pseudomonas aeruginosa LpxC enzyme.

The test system of assay [5] is Escherichia coli strain ATCC25922. In words: Antimicrobial activity, MIC by broth microdilution. Type of assay: cell-based. Particulars: ATCC25922, 18 h, cation-adjusted Mueller-Hinton broth, about 5×10^5 CFU/mL, 35° C., about 18 hours, read-out: MIC Escherichia coli ATCC25922. The method, boiled down: as §1
The mark [6] stands for this setting: fluorescamine detection, 3.1 nmol/L enzyme, 20 μmol/L substrate, pH 6.5, 120 min, read-out: IC50 (inhibitory activity on Escherichia coli LpxC enzyme, Fluoresamine method).

Structures are written as SMILES. Converted amounts (≈) assume the structure as drawn. Where two headings read alike, the source gives them in different places.

Turning to `C[C@H](O)c1nccn1Cc1cc(-c2ccc(C#CC3CC3N)cc2)on1` (stereo in doubt) [Compound 9, (1S)-1-{1-[(5-(4-[(trans-2-aminocyclopropyl)ethynyl]phenyl}-1,2-oxazol-3-yl)methyl]-1H-imidazol-2-yl}ethan-1-ol], the values for the MIC in assay [1] and in assay [2] were 16 µg/mL (≈ 45.9 µM) and 4 µg/mL (≈ 11.5 µM), respectively. Also, the figures for the IC50 in assay [3] (setting [6]) and in assay [4] were 183 nM and 22.3 nM, respectively.
Turning to `C[C@H](O)c1nccn1Cc1cc(-c2ccc(C#CC3(N)CC3)cc2)on1` [Compound 4, (1S)-1-{1-[(5-{4-[(1-Aminocyclopropyl)ethynyl]phenyl}-1,2-oxazol-3-yl)methyl]-1H-imidazol-2-yl}ethan-1-ol], the MIC (usually the smallest concentration in the dilution series that meets the test's criterion for growth inhibition) came out at 0.5 µg/mL (≈ 1.44 µM) in assay [5], 64 µg/mL (≈ 184 µM) in assay [1] and 1 µg/mL (≈ 2.87 µM) in assay [2]. In assay [4], the IC50 (in general, the concentration needed to halve the response being measured) stood at 16.7 nM.
Take `Cc1cc(C#CCCCO)ccc1-c1cc(Cn2ccnc2[C@H](C)O)no1` [Compound 5, 5-{4-[3-({2-[(1S)-1-hydroxyethyl]-1H-imidazol-1-yl}methyl)-1,2-oxazol-5-yl]-3-methylphenyl} pent-4-yn-1-ol]: the MIC in assay [1] was > 64 µg/mL; in assay [2], 16 µg/mL (≈ 43.8 µM). In assay [4], this molecule showed an IC50 of 132 nM.
Turning to `C[C@H](O)c1nccn1Cc1cc(-c2ccc(C#CCCO)cc2)on1` [Compound 6, 4-{4-[3-({2-[(1S)-1-hydroxyethyl]-1H-imidazol-1-yl}methyl)-1,2-oxazol-5-yl]phenyl}but-3-yn-1-ol], the MIC in assay [1] worked out at 64 µg/mL (≈ 190 µM); in assay [2], 4 µg/mL (≈ 11.9 µM). Further, the IC50 in assay [4] was found to be 22.6 nM.
Regarding `C[C@H](O)c1nccn1Cc1cc(-c2ccc(C#C[C@@H]3[C@H]4CNC[C@@H]34)cc2)on1` [Compound 10, (1S)-1-(1-{[5-(4-{[(1R,5S,6s)-3-Azabicyclo[3.1.0]hexan-6-yl]ethynyl}phenyl)-1,2-oxazol-3-yl]methyl}-1H-imidazol-2-yl)ethan-1-ol], the MIC in assay [1] was determined as 8 µg/mL (≈ 21.4 µM). In addition, the IC50 in assay [3] (setting [6]) is 123 nM; in assay [4] it was 14.3 nM.
As for `C[C@H](O)c1nccn1Cc1cc(-c2ccc(C#CC3CN(C)C3)cc2)on1` [Compound 12, (1S)-1-{1-[(5-{4-[(1-Methylazetidin-3-yl)ethynyl]phenyl}-1,2-oxazol-3-yl)methyl]-1H-imidazol-2-yl}ethan-1-ol], the values for the MIC in assay [1] and in assay [2] were 32 µg/mL (≈ 88.3 µM) and 16 µg/mL (≈ 44.1 µM), respectively. This molecule had an IC50 in assay [4] of 46 nM.
Regarding `C[C@H](O)c1nccn1Cc1cc(-c2ccc(C#CC3CN(C[C@H](O)CO)C3)cc2)on1` [Compound 13], the values for the MIC in assay [1] and in assay [2] were 32 µg/mL (≈ 75.7 µM) and 16 µg/mL (≈ 37.9 µM), respectively. Besides, the IC50 worked out at 651 nM in assay [3] (setting [6]) and 21.9 nM in assay [4].
In the case of `C[C@H](O)c1nccn1Cc1cc(-c2c(F)cc(C#CCCCO)cc2F)on1` [Compound 14, 5-{3,5-Difluoro-4-[3-({2-[(1S)-1-hydroxyethyl]-1H-imidazol-1-yl}methyl)-1,2-oxazol-5-yl]phenyl}pent-4-yn-1-ol], the values for the MIC in assay [1] and in assay [2] were 64 µg/mL (≈ 165 µM) and 8 µg/mL (≈ 20.7 µM), respectively. Moreover, the IC50 in assay [4] worked out at 15.4 nM.
The matching figures for `C[C@H](O)c1nccn1Cc1cc(-c2ccc(C#C[C@H]3C[C@@H]3[C@@H](O)CN)cc2)on1` [Compound 15, (R)-2-Amino-1-((1 S,2S)-2-((4-(3-((2-((S)-1-hydroxyethyl)-1H-imidazol-1-yl)methyl)isoxazol-5-yl)phenyl)ethynyl)cyclopropyl)ethanol]: 16 µg/mL (≈ 40.8 µM), 64 µg/mL (≈ 163 µM) and 8.4 nM.
As for `C[C@H](O)c1nccn1[C@H](CO)c1cc(-c2ccc(C#CCCCO)cc2)on1` [Compound 16, 5-(4-{3-[(1S)-2-Hydroxy-1-{2-[(1S)-1-hydroxyethyl]-1H-imidazol-1-yl}ethyl]-1,2-oxazol-5-yl}phenyl)pent-4-yn-1-ol], the MIC in assay [1] was found to be 16 µg/mL (≈ 41.9 µM); in assay [2], 4 µg/mL (≈ 10.5 µM). Further, the IC50 in assay [4] was determined as 2.6 nM.
Consider `C[C@H](O)c1nccn1Cc1cc(-c2ccc(C#CC3CC(NC4COC4)C3)cc2)on1` (stereo partly drawn) [Compound 112, (1S)-1-[l-({5-[4-({3-[(oxetan-3-yl)amino]cyclobutyl}ethynyl)phenyl]-1,2-oxazol-3-yl}methyl)-1H-imidazol-2-yl]ethan-1-ol], for which the MIC in assay [5] is 0.5 µg/mL (≈ 1.19 µM); in assay [1] it was 32 µg/mL (≈ 76.5 µM); in assay [2], 1 µg/mL (≈ 2.39 µM). In assay [3], this molecule came in with an IC50 of 79.7 nM.
On to `C[C@H](O)c1nccn1[C@H](CN)c1cc(-c2ccc(C#CC3(C)COC3)cc2)on1` [Compound 116, (1S)-1-{1-[(1R)-2-amino-1-(5-{4-[(3-methyloxetan-3-yl)ethynyl]phenyl}-1,2-oxazol-3-yl)ethyl]-1H-imidazol-2-yl}ethan-1-ol], for which the MIC was determined as 0.5 µg/mL (≈ 1.27 µM) in assay [5], 64 µg/mL (≈ 163 µM) in assay [1] and 2 µg/mL (≈ 5.1 µM) in assay [2]. Besides, in assay [3] (setting [6]), the IC50 turned out to be 79.1 nM.
The like results for `C[C@H](O)c1nccn1Cc1cc(-c2ccc(C#CC3CCS(=O)(=O)C3)cc2)on1` (stereo partly drawn) [Compound 119, 3-((4-(3-((2-((S)-1-hydroxyethyl)-1H-imidazol-1-yl)methyl)isoxazol-5-yl)phenyl)ethynyl)tetrahydrothiophene 1,1-dioxide] were, in that order, 8 µg/mL (≈ 19.4 µM), > 128 µg/mL, 16 µg/mL (≈ 38.9 µM) and 265 nM.
`CC(O)CN1C[C@@H]2[C@@H](C#Cc3ccc(-c4cc(Cn5ccnc5[C@H](C)O)on4)cc3)[C@@H]2C1` (stereo partly drawn) [Compound 121, 1-[(1R,5S,6s)-6-({4-[5-((2-[(1S)-1-hydroxyethyl]-1H-imidazol-1-yl}methyl)-1,2-oxazol-3-yl]phenyl}ethynyl)-3-azabicyclo[3.1.0]hexan-3-yl]propan-2-ol]: the results for the MIC in assay [5], in assay [1] and in assay [2] were 0.5 µg/mL (≈ 1.16 µM), 16 µg/mL (≈ 37 µM) and 1 µg/mL (≈ 2.31 µM), respectively. Further, in assay [3] (setting [6]), the IC50 was determined as 98.5 nM.
For the molecule `C[C@H](O)c1nccn1Cc1cc(-c2ccc(C#C[C@@H]3[C@H]4CN(CCN)C[C@@H]34)cc2)on1` [Compound 122, (1S)-1-(1-{[5-(4-{[(1R,5S,6s)-3-(2-aminoethyl)-3-azabicyclo[3.1.0]hexan-6-yl]ethynyl}phenyl)-1,2-oxazol-3-yl]methyl}-1H-imidazol-2-yl)ethan-1-ol], the MIC in assay [5], in assay [1] and in assay [2] was 4 µg/mL (≈ 9.58 µM) each time. Further, the IC50 in assay [3] (setting [6]) is 84.6 nM.
Regarding `C[C@H](O)c1nccn1Cc1cc(-c2ccc(C#CC3CCN(C=O)CC3)cc2)on1` [Compound 127, 4-({4-[3-({2-[(1S)-1-hydroxyethyl]-1H-imidazol-1-yl}methyl)-1,2-oxazol-5-yl]phenyl}ethynyl)piperidine-1-carbaldehyde], the MIC in assay [5] is 2 µg/mL (≈ 4.94 µM); in assay [1] it was > 64 µg/mL; in assay [2], 2 µg/mL (≈ 4.94 µM). Also, in assay [3] (setting [6]), the IC50 is 60.1 nM.
`CC(O)CN1CCC(C#Cc2ccc(-c3cc(Cn4ccnc4[C@H](C)O)no3)cc2)CC1` (stereo partly drawn) [Compound 128, 1-[4-((4-[3-({2-[(1S)-1-hydroxyethyl]-1H-imidazol-1-yl]methyl)-1,2-oxazol-5-yl]phenyl}ethynyl)piperidin-1-yl]propan-2-ol]: the MIC is 8 µg/mL (≈ 18.4 µM) in assay [5], > 128 µg/mL in assay [1] and 16 µg/mL (≈ 36.8 µM) in assay [2]. Besides, the IC50 in assay [3] (setting [6]) was 331 nM.
